Reference: the NIST ThermoML archive (doi:10.1016/j.jct.2009.04.002)
Values joined by “and” are separate entries in the source; they are usually repeats but may differ in a detail not shown here. Equal entries are not always repeated. ± gives the expanded uncertainty stated by the source.

Settings: Liquid

CC(C)CCCCCCCOC(=O)c1ccccc1C(=O)OCCCCCCCC(C)C
Settings	mass density, SVM3000 rotational viscometer	viscosity, Rotational Automated Viscometer
278.15 K	977.3 ± 14 kg/m3 and 977.5 ± 14 kg/m3 and 977.1 ± 14 kg/m3	404.6 ± 8.4 mPa·s and 413.1 ± 8.4 mPa·s and 412.2 ± 8.3 mPa·s
283.15 K	973.8 ± 14 kg/m3 and 974 ± 14 kg/m3 and 973.5 ± 14 kg/m3	261.2 ± 5.5 mPa·s and 267 ± 5.4 mPa·s and 266.2 ± 5.4 mPa·s
288.15 K	970.2 ± 14 kg/m3 and 970.4 ± 14 kg/m3 and 969.9 ± 14 kg/m3	175.9 ± 3.7 mPa·s and 179.4 ± 3.6 mPa·s and 178.9 ± 3.6 mPa·s
293.15 K	966.7 ± 14 kg/m3 and 966.9 ± 14 kg/m3 and 966.4 ± 14 kg/m3	122.3 ± 2.5 mPa·s and 124.5 ± 2.5 mPa·s and 124.4 ± 2.5 mPa·s
298.15 K	963.2 ± 14 kg/m3 and 963.4 ± 14 kg/m3 and 962.9 ± 14 kg/m3	87.52 ± 1.8 mPa·s and 89.06 ± 1.8 mPa·s and 88.94 ± 1.8 mPa·s
303.15 K	959.7 ± 13 kg/m3 and 959.8 ± 13 kg/m3 and 959.4 ± 13 kg/m3	64.31 ± 1.3 mPa·s and 65.45 ± 1.3 mPa·s and 65.32 ± 1.3 mPa·s
308.15 K	956.2 ± 13 kg/m3 and 956.3 ± 13 kg/m3 and 955.9 ± 13 kg/m3	48.46 ± 1 mPa·s and 49.29 ± 0.99 mPa·s and 49.16 ± 0.99 mPa·s
313.15 K	952.7 ± 13 kg/m3 and 952.8 ± 13 kg/m3 and 952.4 ± 13 kg/m3	37.35 ± 0.77 mPa·s and 37.97 ± 0.76 mPa·s and 37.87 ± 0.76 mPa·s
318.15 K	949.2 ± 13 kg/m3 and 949.3 ± 13 kg/m3 and 948.9 ± 13 kg/m3	29.38 ± 0.61 mPa·s and 29.83 ± 0.6 mPa·s and 29.75 ± 0.6 mPa·s
323.15 K	945.7 ± 13 kg/m3 and 945.8 ± 13 kg/m3 and 945.3 ± 13 kg/m3	23.51 ± 0.49 mPa·s and 23.87 ± 0.48 mPa·s and 23.79 ± 0.48 mPa·s
328.15 K	942.2 ± 13 kg/m3 and 941.8 ± 13 kg/m3	19.13 ± 0.4 mPa·s and 19.41 ± 0.39 mPa·s and 19.35 ± 0.39 mPa·s

Settings	mass density, Vibrating tube method	viscosity, Falling or rolling sphere viscometry
283.15 K, 100 kPa	973.4 ± 1.4 kg/m3 and 973.5 ± 1.4 kg/m3 and 973.1 ± 1.4 kg/m3	–
283.15 K, 1000 kPa	973.7 ± 1.4 kg/m3 and 974 ± 1.4 kg/m3 and 973.6 ± 1.4 kg/m3	–
283.15 K, 5000 kPa	975.9 ± 1.4 kg/m3 and 976.2 ± 1.4 kg/m3 and 975.7 ± 1.4 kg/m3	–
283.15 K, 10000 kPa	978.4 ± 1.4 kg/m3 and 978.8 ± 1.4 kg/m3 and 978.3 ± 1.4 kg/m3	–
283.15 K, 20000 kPa	983.5 ± 1.4 kg/m3 and 983.9 ± 1.4 kg/m3 and 983.4 ± 1.4 kg/m3	–
283.15 K, 30000 kPa	988.3 ± 1.4 kg/m3 and 988.6 ± 1.4 kg/m3 and 988.1 ± 1.4 kg/m3	–
283.15 K, 40000 kPa	992.8 ± 1.4 kg/m3 and 993.1 ± 1.4 kg/m3 and 992.7 ± 1.4 kg/m3	–
283.15 K, 50000 kPa	997.2 ± 1.4 kg/m3 and 997.5 ± 1.4 kg/m3 and 997 ± 1.4 kg/m3	–
283.15 K, 60000 kPa	1001.4 ± 1.4 kg/m3 and 1001.7 ± 1.4 kg/m3 and 1001.3 ± 1.4 kg/m3	–
283.15 K, 70000 kPa	1005.4 ± 1.4 kg/m3 and 1005.8 ± 1.4 kg/m3	–
298.15 K, 100 kPa	963 ± 1.4 kg/m3 and 963.2 ± 1.4 kg/m3 and 962.8 ± 1.4 kg/m3	–
298.15 K, 1000 kPa	963.4 ± 1.4 kg/m3 and 963.8 ± 1.4 kg/m3 and 963.3 ± 1.4 kg/m3	–
298.15 K, 5000 kPa	965.7 ± 1.4 kg/m3 and 966.1 ± 1.4 kg/m3	–
298.15 K, 10000 kPa	968.4 ± 1.4 kg/m3 and 968.9 ± 1.4 kg/m3 and 968.5 ± 1.4 kg/m3	–
298.15 K, 20000 kPa	973.7 ± 1.4 kg/m3 and 974.2 ± 1.4 kg/m3 and 973.8 ± 1.4 kg/m3	–
298.15 K, 30000 kPa	978.7 ± 1.4 kg/m3 and 979.1 ± 1.4 kg/m3	–
298.15 K, 40000 kPa	983.4 ± 1.4 kg/m3 and 983.8 ± 1.4 kg/m3	–
298.15 K, 50000 kPa	988 ± 1.4 kg/m3 and 988.3 ± 1.4 kg/m3 and 987.9 ± 1.4 kg/m3	–
298.15 K, 60000 kPa	992.4 ± 1.4 kg/m3 and 992.8 ± 1.4 kg/m3 and 992.3 ± 1.4 kg/m3	–
298.15 K, 70000 kPa	996.6 ± 1.4 kg/m3 and 997 ± 1.4 kg/m3	–
303.15 K, 100 kPa	–	65 ± 5.3 mPa·s and 64.6 ± 5.2 mPa·s
303.15 K, 1000 kPa	–	66.4 ± 5.4 mPa·s and 66 ± 5.3 mPa·s
303.15 K, 5000 kPa	–	72.9 ± 5.9 mPa·s and 72.6 ± 5.9 mPa·s
303.15 K, 10000 kPa	–	82 ± 6.7 mPa·s and 81.7 ± 6.7 mPa·s
303.15 K, 20000 kPa	–	103 ± 9 mPa·s
303.15 K, 30000 kPa	–	130 ± 11 mPa·s and 129 ± 11 mPa·s
303.15 K, 40000 kPa	–	162 ± 14 mPa·s
303.15 K, 50000 kPa	–	202 ± 18 mPa·s and 201 ± 18 mPa·s
303.15 K, 60000 kPa	–	251 ± 24 mPa·s and 250 ± 24 mPa·s
313.15 K, 100 kPa	–	38 ± 3.1 mPa·s and 38.5 ± 3.1 mPa·s
313.15 K, 1000 kPa	–	38.7 ± 3.1 mPa·s and 39.3 ± 3.2 mPa·s
313.15 K, 5000 kPa	–	42.2 ± 3.4 mPa·s and 42.8 ± 3.5 mPa·s
313.15 K, 10000 kPa	–	46.9 ± 3.8 mPa·s and 47.6 ± 3.8 mPa·s
313.15 K, 20000 kPa	–	57.8 ± 4.7 mPa·s and 58.8 ± 4.7 mPa·s
313.15 K, 30000 kPa	–	71.1 ± 5.8 mPa·s and 72.4 ± 5.9 mPa·s
313.15 K, 40000 kPa	–	87.2 ± 7.2 mPa·s and 88.8 ± 7.3 mPa·s
313.15 K, 50000 kPa	–	107 ± 9 mPa·s and 109 ± 9 mPa·s
313.15 K, 60000 kPa	–	130 ± 11 mPa·s and 132 ± 11 mPa·s
323.15 K, 100 kPa	945.4 ± 1.4 kg/m3 and 945.7 ± 1.4 kg/m3 and 945.2 ± 1.4 kg/m3	–
323.15 K, 1000 kPa	945.8 ± 1.4 kg/m3 and 946.3 ± 1.4 kg/m3	–
323.15 K, 5000 kPa	948.4 ± 1.4 kg/m3 and 948.8 ± 1.4 kg/m3 and 948.3 ± 1.4 kg/m3	–
323.15 K, 10000 kPa	951.5 ± 1.4 kg/m3 and 951.9 ± 1.4 kg/m3 and 951.4 ± 1.4 kg/m3	–
323.15 K, 20000 kPa	957.4 ± 1.4 kg/m3 and 957.9 ± 1.4 kg/m3	–
323.15 K, 30000 kPa	962.9 ± 1.4 kg/m3 and 963.3 ± 1.4 kg/m3 and 962.8 ± 1.4 kg/m3	–
323.15 K, 40000 kPa	968.1 ± 1.4 kg/m3 and 968.5 ± 1.4 kg/m3 and 968 ± 1.4 kg/m3	–
323.15 K, 50000 kPa	973.1 ± 1.4 kg/m3 and 973.4 ± 1.4 kg/m3 and 973 ± 1.4 kg/m3	–
323.15 K, 60000 kPa	977.8 ± 1.4 kg/m3 and 978.1 ± 1.4 kg/m3 and 977.7 ± 1.4 kg/m3	–
323.15 K, 70000 kPa	982.3 ± 1.4 kg/m3 and 982.6 ± 1.4 kg/m3 and 982.2 ± 1.4 kg/m3	–
333.15 K, 100 kPa	938.4 ± 1.4 kg/m3 and 938.7 ± 1.4 kg/m3 and 938.2 ± 1.4 kg/m3	16.1 ± 1.3 mPa·s and 15.5 ± 1.3 mPa·s and 16 ± 1.3 mPa·s
333.15 K, 1000 kPa	938.9 ± 1.4 kg/m3 and 939.3 ± 1.4 kg/m3 and 938.8 ± 1.4 kg/m3	16.4 ± 1.3 mPa·s and 15.7 ± 1.3 mPa·s and 16.3 ± 1.3 mPa·s
333.15 K, 5000 kPa	941.6 ± 1.4 kg/m3 and 942 ± 1.4 kg/m3 and 941.5 ± 1.4 kg/m3	17.7 ± 1.4 mPa·s and 17 ± 1.4 mPa·s and 17.6 ± 1.4 mPa·s
333.15 K, 10000 kPa	–	19.5 ± 1.6 mPa·s and 18.6 ± 1.5 mPa·s and 19.3 ± 1.6 mPa·s
